One assay has as its system C. elegans. The conditions noted are these: worms on mutant or wild-type yeast with E. coli, treated with DPI; expected result of a planned test.
The subject of assay [1] is ROS produced by the worms. The conditions noted are these: worms on mutant or wild-type yeast with E. coli, treated with DPI; expected result of a planned test.
Description: a) Peroxidase enzyme activity: A commercially available assay (Amplex Red peroxidase kit, Molecular Probes) will be used to test peroxidase activity (20). Briefly, ROS produced by the worms, presumably in response to pathogenic attack, oxidize the substrate Amplex Red, to form a red fluorescent product that can be measured spectrophotometrically.
Briefly, worms reared on mixed cultures of mutant or wild-type yeast with E. coli will be treated with DPI.

Description for C. elegans: The worms are carefully monitored twice a day from the time the eggs are exposed to the microbial cultures up to day 4, when the Dar phenotype is clearly visible. […] At day 4, the anal swelling (or Dar) phenotype is scored for worms plated on mixed lawns of E. coli and yeast and compared to worms plated on E. coli lawns without yeast or with heat inactivated yeast.
Briefly, worms reared on mixed cultures of mutant or wild-type yeast with E. coli will be treated with DPI. Its effect on the nematode host will be observed phenotypically (using the Dar phenotype described in Preliminary studies) and biochemically (using the peroxidase assay described in Specific Aim 1B).

With `O=S(=O)([O-])[O-].c1ccc2c(c1)[I+]c1ccccc1-2.c1ccc2c(c1)[I+]c1ccccc1-2` [DPI, Diphenylene iodonium sulfate], in the assay on C. elegans, the Dar phenotype result is listed as “expect to observe the Dar phenotype”. Also, the peroxidase activity result in assay [1] is on record as “low peroxidase activity”.

The record behind these values is patent US8541197B2 (priority 2006, dated 2013).
